The record followed here is patent US11040053B2, “Compositions and methods for activating “stimulator of interferon gene”13 dependent signalling” (CHINOOK THERAPEUTICS, INC., priority 2015, dated 2021).

Usually Kd stands for the concentration at which binding is half-saturated.

One assay relates to B16.SIY cells. Nature of the assay: B16.SIY melanoma mouse model, intra-tumoral injection. It counts as in vivo, C57BL/6 mice. On the procedure:
To determine whether the derivative molecules elicit anti-tumor immunity, 6-8 week old female C57BL/6 mice (8 mice per group) were implanted with B16.SIY cells (5×10^5 cells in 100 μL PBS). Mice were treated with reference compound 3′3′-RR-(A)(A) and di-F compound 3′3′-RR-(2′F-A)(2′F-A) (5, 50, 100 μg in a total volume of 40 μL HBSS), or HBSS vehicle control. Treatments began when tumors reached a volume of approximately 100 mm^3, on day 9 post tumor implantation. The CDN compounds were administered by […] injection into the center of the tumor (IT) using a 27 gauge needle. Mice were bled on day 16 post tumor implantation and PBMCs were isolated by Ficoll gradient (Miltenyi Biotech). 1×10^5 PBMCs were pre-incubated with anti-CD16/32 monoclonal antibody to block potential nonspecific binding, and labeled with PE-MHC class I pentamer (Proimmune) consisting of murine H-2Kb complexed to […] (SIY, SEQ ID NO: 16) peptide, anti-TCRβ-AF700 (H57-597), anti-CD8-Pacific Blue (53-6.7), anti-CD4-Pacific Orange (RM4-5) (all antibodies from BioLegend) and the Fixable Viability Dye eFluor 450 (eBioscience). Stained cells were analyzed using FACS Versa cytometer with FACSDiva software (BD). Data analysis was conducted with FlowJo software (Tree Star).

Assay [1] addresses T1, human-STING(E149-S379)H232R protein (Homo sapiens, UniProt Q86WV6, H232R).
T1 construct: His6 (C); made in house; host or cells: E. coli
Nature of the assay: Surface Plasmon Resonance binding to hSTING WT. Conditions: Biacore T200, 15° C., steady-state analysis. On the procedure:
Binding of the mono- and di-F CDN compounds was assessed using Surface Plasmon Resononce to determine a binding constant. An E. coli expression construct (human-STING[E149-S379]H232R) was prepared harboring the protein sequence:
Aliquots were prepared and stored at −80° C. in 30 mM Tris pH 7.5/100 mM NaCl/10% glycerol.
N-terminal avi-tagged human-STING(E149-S379)H232R protein was immobilized (2500 RUs) on a streptavidin chip at 15° C. in a Biacore T200 (GE Healthcare). Titrations of cyclic dinucleotides (CDNs as indicated in Table 6) in 30 mM Tris pH 7.5/50 mM NaCL/0.005% Tween 20/1 mM DTT/2% DMSO, were profiled (30 μLs/min, 180 seconds for sample contact/120 seconds for dissociation) against hSTING at 15° C. Kinetic analysis of the data was performed using Biacore T200 Evaluation software. Steady-state analysis of the data was performed using Graphpad Prism 6.0 software, using one site-specific binding algorithm (Equation is Y=Bmax*X/(Kd+X)).
(SPR reads the build-up and loss of mass on a sensor chip optically.)

Molecules are shown by their SMILES.

T1 sequence (Q86WV6 with tags, fused parts or gaps H232R): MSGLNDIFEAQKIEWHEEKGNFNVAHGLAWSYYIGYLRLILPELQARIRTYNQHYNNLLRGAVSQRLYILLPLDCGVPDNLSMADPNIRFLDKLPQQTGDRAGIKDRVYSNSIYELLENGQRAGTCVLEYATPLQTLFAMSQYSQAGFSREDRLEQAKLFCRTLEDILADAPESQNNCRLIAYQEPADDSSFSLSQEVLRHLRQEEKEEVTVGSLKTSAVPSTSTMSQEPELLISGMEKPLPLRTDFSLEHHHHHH

Take `Nc1ncnc2c1ncn2[C@@H]1O[C@@H]2CO[P@@](=O)(S)O[C@H]3[C@@H](F)[C@H](n4cnc5c(N)ncnc54)O[C@@H]3CO[P@@](=O)(S)O[C@H]2[C@H]1F` [Compound 6, (2R,3R,3aR,5R,7aR,9R,10R,10aR,12R,14aR)-2,9-bis(6-amino-9H-purin-9-yl)-3,10-difluoro-5,12-dimercaptooctahydro-2H,7H-difuro[3,2-d:3′,2′-j][1,3,7,9]tetraoxa[2,8]diphosphacyclododecine 5,12-dioxide]: the “tumor volume / tumor growth, in words” value with B16.SIY cells (FIG. 14A, IT injection 5, 50, 100 μg, established B16-SIY melanomas) is “rejected the growth of established B16-SIY melanomas at all doses”. Also, the “percent of SIY-specific CD8+ T cells in PBMCs, in words” value in the assay with B16.SIY cells (FIG. 14B, 5 μg IT, day 7 post-IT injection, vs HBSS control) is on record as “elicited significantly SIY-specific CD8^+ T cells”. Also, in assay [1], the Kd was 1 nM.
